Reference: patent US8846713B2, “Fused heterocyclic compounds as phosphodiesterases (PDEs) inhibitors” (Takeda Pharmaceutical Company Limited, priority 2010, dated 2014)
Counter-ions that a name gives are not always drawn.

Biological target: T1, Human PDE10A enzyme (Homo sapiens, UniProt Q9Y233)
T1 construct: transfected with the full-length gene; His-tag; made in house; host or cells: Sf9 or COS-7 cells
Assay: PDE enzyme inhibition, SPA (Scintillation Proximity Assay) with [3H]cGMP
Format: biochemical
Conditions: [3H]cGMP substrate; for inhibition at 1 µM: compound 1 μM, read-out: Percent inhibition (1 μM); for inhibition at 10 µM: compound 10 μM, read-out: Percent inhibition (10 μM); for inhibition at 0.1 µM: compound 0.1 μM, read-out: Percent inhibition (0.1 μM)
Procedure: Human PDE10A enzyme was generated from Sf9 or COS-7 cells transfected with the full-length gene. Cloned enzyme was extracted from homogenized cell pellets. The extracted enzyme from sf9 cells was partially purified using His-tag affinity column. The enzyme was stored at −70° C. until use. PDE activity was measured using a SPA (Scintillation Proximity Assay) (GE Healthcare). To evaluate the inhibitory activity, 10 μL of serial diluted compounds were incubated with 20 μL of PDE enzyme in assay buffer (50 mM HEPES-NaOH, 8.3 mM MgCl2, 1.7 mM EGTA, 0.1% BSA (pH 7.4)) for 30 min. at room temperature. Final concentration of DMSO in the assay was 1 percent as compounds were tested in duplicate in 96-well half-area plates (Corning). To start the reaction, 10 μL of substrate [^3H] cGMP (25 or 50 nM; enclosed in SPA kits from GE Healthcare or purchased from PerkinElmer, respectively) was added for a final assay volume of 40 μL. After 60 min incubation at room temperature, yttrium SPA beads containing Zinc sulphate were added (20 μL at 6 mg/mL) to terminate the PDE reaction. After being settled for 60 min, assay plates were counted in a scintillation counter (PerkinElmer) to allow calculation of inhibition rate. Inhibition rate was calculated on the basis of 0% control wells with DMSO and 100% control wells without enzyme.

T1 sequence (Q9Y233 267-1055): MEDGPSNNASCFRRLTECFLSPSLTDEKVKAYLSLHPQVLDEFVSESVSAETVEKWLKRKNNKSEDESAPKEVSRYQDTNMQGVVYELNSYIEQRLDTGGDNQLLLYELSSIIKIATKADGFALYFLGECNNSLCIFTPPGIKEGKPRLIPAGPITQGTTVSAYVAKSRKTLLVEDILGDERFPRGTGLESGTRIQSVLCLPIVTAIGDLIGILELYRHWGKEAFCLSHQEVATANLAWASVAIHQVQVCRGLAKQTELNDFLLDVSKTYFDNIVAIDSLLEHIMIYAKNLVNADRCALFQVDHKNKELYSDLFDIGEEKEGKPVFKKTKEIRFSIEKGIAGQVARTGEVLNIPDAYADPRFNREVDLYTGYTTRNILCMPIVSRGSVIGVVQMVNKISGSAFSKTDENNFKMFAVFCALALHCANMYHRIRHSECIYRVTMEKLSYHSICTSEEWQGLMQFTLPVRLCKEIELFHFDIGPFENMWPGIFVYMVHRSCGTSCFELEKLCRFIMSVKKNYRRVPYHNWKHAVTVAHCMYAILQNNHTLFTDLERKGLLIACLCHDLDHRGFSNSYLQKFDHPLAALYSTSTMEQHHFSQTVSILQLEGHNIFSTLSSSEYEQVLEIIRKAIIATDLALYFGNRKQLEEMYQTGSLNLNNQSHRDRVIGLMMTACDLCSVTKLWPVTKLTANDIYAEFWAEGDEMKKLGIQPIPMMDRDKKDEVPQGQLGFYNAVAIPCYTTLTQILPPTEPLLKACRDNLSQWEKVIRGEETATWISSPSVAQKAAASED

Row | inhibition at 1 µM | inhibition at 10 µM | inhibition at 0.1 µM | SMILES
1 |  |  | 98% | CCn1c(=O)n(-c2ccc(Oc3nc4ccccc4[nH]3)cc2)c2ncccc21 [Example 8, 3-[4-(1H-benzimidazol-2-yloxy)phenyl]-1-ethyl-1,3-dihydro-2H-imidazo[4,5-b]pyridin-2-one hydrochloride]
2 | 99% | 98% |  | CCn1c(=O)n(-c2ccc(Oc3cn4ccccc4n3)cc2)c2ncccc21 [Example 31, 1-ethyl-3-[4-(imidazo[1,2-a]pyridin-2-yloxy)phenyl]-1,3-dihydro-2H-imidazo[4,5-b]pyridin-2-one]
3 | 100% | 101% |  | CCn1c(=O)n(-c2ccc(Oc3nc4ccccc4n3CCO)cc2)c2ncccc21 [Example 39, 1-ethyl-3-(4-{[1-(2-hydroxyethyl)-1H-benzimidazol-2-yl]oxy}phenyl)-1,3-dihydro-2H-imidazo[4,5-b]pyridin-2-one]
4 | 99% | 101% |  | CCn1c(=O)n(-c2ccc(Oc3nc4ccccc4n3CC(C)(C)O)cc2)c2ncccc21 [Example 40, 1-ethyl-3-(4-{[1-(2-hydroxy-2-methylpropyl)-1H-benzimidazol-2-yl]oxy}phenyl)-1,3-dihydro-2H-imidazo[4,5-b]pyridin-2-one]
5 | 95% | 99% |  | CCn1c(=O)n(-c2ccc(Oc3nc4ncccc4n3C)cc2)c2ncccc21 [Example 85, 1-ethyl-3-{4-[(1-methyl-1H-imidazo[4,5-b]pyridin-2-yl)oxy]phenyl}-1,3-dihydro-2H-imidazo[4,5-b]pyridin-2-one]
6 | 97% | 98% |  | CCn1c(=O)n(-c2ccc(Oc3nc4cccnc4n3C)cc2)c2ncccc21 [Example 86, 1-ethyl-3-{4-[(3-methyl-3H-imidazo[4,5-b]pyridin-2-yl)oxy]phenyl}-1,3-dihydro-2H-imidazo[4,5-b]pyridin-2-one]
7 | 97% | 98% |  | CCCn1c(=O)n(-c2ccc(Oc3nc4cccnc4n3C)cc2)c2ncccc21 [Example 97, 3-{4-[(3-methyl-3H-imidazo[4,5-b]pyridin-2-yl)oxy]phenyl}-1-propyl-1,3-dihydro-2H-imidazo[4,5-b]pyridin-2-one]
8 | 99% | 100% |  | Cn1c(Oc2ccc(-n3c(=O)n(C(F)F)c4cccnc43)cc2)nc2ccccc21 [Example 100, 1-(difluoromethyl)-3-{4-[(1-methyl-1H-benzimidazol-2-yl)oxy]phenyl}-1,3-dihydro-2H-imidazo[4,5-b]pyridin-2-one]

The remaining lines, values behind:

Row | SMILES | inhibition at 1 µM | inhibition at 10 µM | inhibition at 0.1 µM
9 | O=c1[nH]c2cccnc2n1-c1ccc(Nc2nc3ccccc3o2)cc1 [Example 1, 3-[4-(1,3-benzoxazol-2-ylamino)phenyl]-1,3-dihydro-2H-imidazo[4,5-b]pyridin-2-one] | 98% | 100% | 
10 | O=c1[nH]c2cccnc2n1-c1ccc(N2CCn3c2nc2ccccc23)cc1 [Example 2, 3-[4-(2,3-dihydro-1H-imidazo[1,2-a]benzimidazol-1-yl)phenyl]-1,3-dihydro-2H-imidazo[4,5-b]pyridin-2-one] | 104% | 103% | 
11 | Cn1c(=O)n(-c2ccc(N3CCn4c3nc3ccccc34)cc2)c2ncccc21 [Example 3, 3-[4-(2,3-dihydro-1H-imidazo[1,2-a]benzimidazol-1-yl)phenyl]-1-methyl-1,3-dihydro-2H-imidazo[4,5-b]pyridin-2-one] |  |  | 99%
12 | CC1(C)C(=O)N(c2ccc(Oc3nc4ccccc4[nH]3)cc2)c2ncccc21 [Example 9, 1-[4-(1H-benzimidazol-2-yloxy)phenyl]-3,3-dimethyl-1,3-dihydro-2H-pyrrolo[2,3-b]pyridin-2-one dihydrochloride] | 99% | 99% | 
13 | CCn1c(=O)n(-c2ccc(-n3ncc4cccnc43)cc2)c2ncccc21 [Example 12, 1-Ethyl-3-[4-(1H-pyrazolo[3,4-b]pyridin-1-yl)phenyl]-1,3-dihydro-2H-imidazo[4,5-b]pyridin-2-one] | 93% | 99% | 
14 | CCn1c(=O)n(-c2ccc3c(c2)CCN3c2nc3ccccc3[nH]2)c2ncccc21 [Example 13, 3-[1-(1H-benzimidazol-2-yl)-2,3-dihydro-1H-indol-5-yl]-1-ethyl-1,3-dihydro-2H-imidazo[4,5-b]pyridin-2-one] | 100% | 101% | 
15 | CCn1c(=O)n(-c2ccc(N3CCn4c3nc3ccccc34)cc2)c2ncccc21 [Example 24, 3-[4-(2,3-dihydro-1H-imidazo[1,2-a]benzimidazol-1-yl)phenyl]-1-ethyl-1,3-dihydro-2H-imidazo[4,5-b]pyridin-2-one] |  |  | 98%
16 | CCn1c(=O)n(-c2ccc(Nc3nc4ccc(F)cc4o3)cc2)c2ncccc21 [Example 27, 1-ethyl-3-{4-[(6-fluoro-1,3-benzoxazol-2-yl)amino]phenyl)-1,3-dihydro-2H-imidazo[4,5-b]pyridin-2-one] |  |  | 102%
17 | CCn1c(=O)n(-c2ccc3c(c2)CCN3c2nc3ccccc3n2C)c2ncccc21 [Example 48, 1-ethyl-3-[1-(1-methyl-1H-benzimidazol-2-yl)-2,3-dihydro-1H-indol-5-yl]-1,3-dihydro-2H-imidazo[4,5-b]pyridin-2-one] | 96% | 100% | 
18 | CCn1c(=O)n(-c2ccc(Oc3nc4ccccc4[nH]3)cc2)c2nccc(C)c21 [Example 64, 3-[4-(1H-benzimidazol-2-yloxy)phenyl]-1-ethyl-7-methyl-1,3-dihydro-2H-imidazo[4,5-b]pyridin-2-one dihydrochloride] | 100% | 101% | 
19 | CCn1c(=O)n(-c2ccc3c(c2)CCN3c2nc3cccnc3[nH]2)c2ncccc21 [Example 71, 1-ethyl-3-[1-(3H-imidazo[4,5-b]pyridin-2-yl)-2,3-dihydro-1H-indol-5-yl]-1,3-dihydro-2H-imidazo[4,5-b]pyridin-2-one] | 99% | 97% | 
20 | CC(C)n1c(=O)n(-c2ccc3c(c2)CCN3c2nc3cccnc3[nH]2)c2ncccc21 [Example 72, 3-[1-(3H-imidazo[4,5-b]pyridin-2-yl)-2,3-dihydro-1H-indol-5-yl]-1-(1-methylethyl)-1,3-dihydro-2H-imidazo[4,5-b]pyridin-2-one] | 104% | 110% | 
21 | CCn1c(=O)n(-c2ccc(Oc3nc4cccnc4[nH]3)cc2)c2ncccc21 [Example 75, 1-ethyl-3-[4-(3H-imidazo[4,5-b]pyridin-2-yloxy)phenyl]-1,3-dihydro-2H-imidazo[4,5-b]pyridin-2-one] | 98% | 101% | 
22 | CC(C)n1c(=O)n(-c2ccc(Oc3nc4cccnc4n3C)cc2)c2ncccc21 [Example 98, 1-(1-methylethyl)-3-{4-[(3-methyl-3H-imidazo[4,5-b]pyridin-2-yl)oxy]phenyl}-1,3-dihydro-2H-imidazo[4,5-b]pyridin-2-one] | 99% | 101% | 
23 | Cn1c(Oc2ccc(-n3c(=O)n(C4CC4)c4cccnc43)cc2)nc2cccnc21 [Example 99, 1-cyclopropyl-3-{4-[(3-methyl-3H-imidazo[4,5-b]pyridin-2-yl)oxy]phenyl}-1,3-dihydro-2H-imidazo[4,5-b]pyridin-2-one] | 100% | 105% | 
24 | Cn1c(Oc2ccc(-n3c(=O)n(C(F)F)c4cccnc43)cc2)nc2cccnc21 [Example 101] | 101% | 99% | 
